Source: patent US20250161249A1, “USE OF PHENYLLACTIC ACID IN INHIBITING HELICOBACTER PYLORI INFECTION” (Zhejiang Gongshang University, priority 2022, published 2025)
≈ marks a conversion by molar mass, not a printed value. Where “and” joins values, the source holds several entries; their conditions need not be identical. Equal values may be shown once. Entries after “also recorded” stand apart in the source; their conditions may differ.

Assays:
[1] = tested on: H. pylori ZJC03; assay: Antimicrobial susceptibility test of H. pylori ZJC03 (E-test paper); assay type: cell-based, Helicobacter pylori; conditions: clinical strain H. pylori ZJC03, E-test paper
Procedure: The sensitivity of H. pylori ZJC03 was tested by using an E-text test paper.

[2] = tested on: H. pylori ZJC03; assay: Bacteriostasis experiment by Kirby-Bauer method (inhibition zone); assay type: cell-based, Helicobacter pylori; conditions: 6 mm filter paper disk, 72 h
Procedure: Preparation of different concentrations of phenyllactic acid: phenyllactic acid was diluted two-fold to 40 mg/mL, 20 mg/mL, 10 mg/mL, 5 mg/mL, 2.5 mg/mL and 1.25 mg/mL. The solvent used for dilution was ultrapure water.
Preparation of antimicrobial susceptibility disks: filter paper was made into circular disks with a diameter of 6 mm, subjected to autoclaved sterilization for 15 min and dried. Each circular filter paper disk was completely soaked in phenyllactic acid solutions with different concentrations, and ultrapure water was taken as a blank control to obtain antimicrobial susceptibility disks with different concentrations.
Coating and culture: 100 μL of 10^8 CFU/mL of an H. pylori bacterial solution was evenly coated on a CBA medium and dried. Then the antimicrobial susceptibility disks with different concentrations of the phenyllactic acid were pasted on a plate by tweezers, and this operation was repeated 3 times for disks of each concentration. Then the plate was placed in a culture box (containing a microaerophilic gas-generating pack inside) and statically cultured at 37° C. for 72 h. The size of an inhibition zone (mm) was measured and the measurement result was recorded.

[3] = target: T1, urease activity of H. pylori ZJC03 (Helicobacter pylori, UniProt P69996); assay: Urease activity of H. pylori, phenol red method; assay type: biochemical; conditions: co-cultured 48 h
T1 construct: A total of 50 μL of the H. pylori culture solution and 50 μL of the phenyllactic acid; endogenous in cells; host or cells: Helicobacter pylori ZJC03 (live culture, 1×10^8 CFU/mL)
T1 sequence (P69996 whole entry): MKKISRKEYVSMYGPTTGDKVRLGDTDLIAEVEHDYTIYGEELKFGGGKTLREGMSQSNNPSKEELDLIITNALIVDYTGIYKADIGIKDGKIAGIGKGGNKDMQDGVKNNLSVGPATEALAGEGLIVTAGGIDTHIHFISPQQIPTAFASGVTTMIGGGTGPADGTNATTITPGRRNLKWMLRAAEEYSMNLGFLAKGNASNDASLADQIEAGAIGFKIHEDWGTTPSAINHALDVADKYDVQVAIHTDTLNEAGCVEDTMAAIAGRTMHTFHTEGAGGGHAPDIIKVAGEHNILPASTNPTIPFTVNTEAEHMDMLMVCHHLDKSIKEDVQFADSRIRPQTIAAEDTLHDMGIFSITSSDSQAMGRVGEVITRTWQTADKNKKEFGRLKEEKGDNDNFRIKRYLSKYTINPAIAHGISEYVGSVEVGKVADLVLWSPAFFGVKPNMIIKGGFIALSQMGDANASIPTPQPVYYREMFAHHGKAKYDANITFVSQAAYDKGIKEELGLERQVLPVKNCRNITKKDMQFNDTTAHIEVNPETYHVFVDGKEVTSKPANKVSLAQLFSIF
T1 sequence (P14916 whole entry, further chain): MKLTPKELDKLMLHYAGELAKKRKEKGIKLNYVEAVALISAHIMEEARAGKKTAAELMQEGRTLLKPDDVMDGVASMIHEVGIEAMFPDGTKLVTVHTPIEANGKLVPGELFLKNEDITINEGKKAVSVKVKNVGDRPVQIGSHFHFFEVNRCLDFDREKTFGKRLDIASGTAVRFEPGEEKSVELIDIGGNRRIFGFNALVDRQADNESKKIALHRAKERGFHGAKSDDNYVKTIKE

[4] = tested on: IFN-γ, IL-6, IL-1β and IL-10 in the stomach tissue; assay: RT-qPCR of inflammatory factors in gastric mucosal tissues of H. pylori infected mice; assay type: in vivo, C57BL/6J mice; conditions: gavage
Procedure: After one week of acclimation, mice were randomly divided into 4 groups: ZC, ZH, ZP and ZA. The mice in the groups were treated as follows: […] After the molding, all the mice in each group were sacrificed by cervical dislocation. Gastric mucosa samples were washed with PBS and collected aseptically. The stomach contents were frozen in liquid nitrogen and subsequently stored at −80° C. for testing in Examples 8-10. The quantitative analysis of IFN-γ, IL-6, IL-1β and IL-10 in the stomach tissue was performed by RT-qPCR. Total RNA (100-500 ng/μL) was isolated from mouse stomach tissue samples according to the instructions of an RNA extraction kit, followed by reverse transcription of RNA into cDNA using the kit. The levels of each gene were normalized using GAPDH as an internal control. The RT-qPCR assay was performed according to the following thermal cycle program: pre-denaturation at 95° C. for 10 min, 40 cycles of 95° C. for 15 s and 60° C. for 30 s, and the melting curve was from 60° C. to 95° C. with a temperature increase of 0.3° C. every 15 s and the fluorescence signal was collected once, and a 2^−ΔΔCt method was used for calculation.

[5] = tested on: mouse gastric flora; assay: Gastric microbiota analysis by 16S rRNA gene sequencing in H. pylori infected mice; assay type: in vivo, C57BL/6J mice
Procedure: After one week of acclimation, mice were randomly divided into 4 groups: ZC, ZH, ZP and ZA. The mice in the groups were treated as follows:
ZP group (45 mice): every mouse was gavaged once every other day with 400 μL of the H. pylori ZJC03 bacterial suspension for 2 weeks, followed by daily gavage of 400 μL of phenyllactic acid (at the concentrations of 0.16 mg/mL, 0.32 mg/mL and 0.8 mg/mL respectively, and 15 mice for each concentration) every day for 4 weeks.
ZA group (15 mice): every mouse was gavaged once every other day with 400 μL of the H. pylori ZJC03 bacterial suspension for 2 weeks, followed by 10 days of gavage of combined antibiotics (at the dose of 400 μL per mouse per day), and after 10 days, each mouse continued to be gavaged with 400 μL of ultrapure water for 18 days.
After the molding, all the mice in each group were sacrificed by cervical dislocation. Gastric mucosa samples were washed with PBS and collected aseptically. The stomach contents were frozen in liquid nitrogen and subsequently stored at −80° C. for testing in Examples 8-10.
DNA samples were extracted from the gastric mucosa by a CTAB method, and the quality of DNA extraction was detected by agarose gel electrophoresis, and at the same time, the DNA was quantified by an ultraviolet spectrophotometer. The hypervariable regions V3-V4 of 16S rRNA of bacteria were amplified by using universal primers (341F and 805R). Paired-end sequencing of 2×250 bp was performed using a NovaSeq 6000 sequencer, and DNA extraction and sequencing were completed in the LC-Bio Technologies Co. Ltd.

[6] = tested on: H. pylori; assay: Determination of minimum inhibitory concentration (agar dilution method); assay type: cell-based, Helicobacter pylori; conditions: 37° C., 48 h, microaerobic
[7] = tested on: H. pylori ZJC03; assay: Ultra microstructure observation (SEM, TEM, negative-stain TEM); assay type: cell-based, Helicobacter pylori; conditions: at the MIC
[8] = tested on: gastric mucosal injury caused by H. pylori infection; assay: Histopathological observation (H&E) of gastric tissues of H. pylori infected mice; assay type: in vivo, C57BL/6J mice; conditions: phenyllactic acid 0.8 mg/mL, 400 μL gavage daily 4 weeks, antibiotics 400 μL daily 10 days
Procedure: After one week of acclimation, mice were randomly divided into 4 groups: ZC, ZH, ZP and ZA. The mice in the groups were treated as follows: ZC group (15 mice): every mouse was gavaged once every other day with 400 μL of a modified Brucella broth medium for 2 weeks, followed by daily gavage of 400 μL of ultrapure water every day for 4 weeks. […] The bacterial content of the H. pylori ZJC03 suspension was 10^8 CFU/mL. After the molding, all the mice in each group were sacrificed by cervical dislocation. Gastric mucosa samples were washed with PBS and collected aseptically. The stomach contents were frozen in liquid nitrogen and subsequently stored at −80° C. for testing in Examples 8-10. The gastric mucosa was fixed in a 4% paraformaldehyde (PFA) buffer solution for 24 h at room temperature. After the treatment, the stomach tissue was embedded with an EG 1160 paraffin machine. The paraffin block was placed in an RM 2235 rotary microtome for sectioning (5 μm), and the sections were stained with hematoxylin and eosin (H&E). The stained sections were observed under a light microscope and photographed (NIKON Eclipse Ci, Japan); and the imaging system was: NIKON digital sight DS-FI2, and the photographic magnification was: 400× and 200×.

[9] = tested on: H. pylori; assay: Effects of sub-inhibitory concentrations on growth curves of H. pylori; assay type: cell-based, Helicobacter pylori
Procedure: According to the determination of the bacteriostatic ability, the effects of phenyllactic acid on growth curves were analyzed. An H. pylori suspension cultured overnight was inoculated into a sterilized modified Brucella broth medium. The concentration was adjusted such that the initial inoculum size of the bacteria was 1×10^8 CFU/mL. The phenyllactic acid was added at the final concentrations of ⅛ MIC, ¼ MIC, ½ MIC and MIC, and no drug was added to the control group. The mixed solution was placed in a microaerobic environment at 37° C. for 120 h, the OD560 value was determined every other 12 h, and the changes of the growth curves at sub-inhibitory concentrations were observed and recorded.

[10] = gastric mucosa, ZP = 0.8 mg/mL phenyllactic acid, ZA = antibiotic treatment

SMILES: CC1(C)S[C@@H]2[C@H](NC(=O)[C@H](N)c3ccc(O)cc3)C(=O)N2[C@H]1C(=O)O [Amoxicillin]
- Sensitivity of H. pylori ZJC03 to antibiotics [1]: 0.016 µg/mL

SMILES: CC[C@H]1OC(=O)[C@H](C)[C@@H](O[C@H]2C[C@@](C)(OC)[C@@H](O)[C@H](C)O2)[C@H](C)[C@@H](O[C@@H]2O[C@H](C)C[C@H](N(C)C)[C@H]2O)[C@](C)(OC)C[C@@H](C)C(=O)[C@H](C)[C@@H](O)[C@]1(C)O [Clarithromycin]
- Sensitivity of H. pylori ZJC03 to antibiotics [1]: 0.8 µg/mL

SMILES: Cc1ncc([N+](=O)[O-])n1CCO [Metronidazole]
- Sensitivity of H. pylori ZJC03 to antibiotics [1]: insensitive

SMILES: CN(C)[C@@H]1C(O)=C(C(N)=O)C(=O)[C@@]2(O)C(O)=C3C(=O)c4c(O)cccc4[C@@](C)(O)[C@H]3C[C@@H]12 [Tetracycline]
- Sensitivity of H. pylori ZJC03 to antibiotics [1]: 0.023 µg/mL

SMILES: CC(O)C(=O)O (stereo not shown) [lactic acid]
- Inhibition zone diameter ([2]; 10 mg/mL solution): no visible inhibition zone

SMILES: O=C(O)C(O)Cc1ccccc1 (stereo not shown) [phenyllactic acid, Phenyllactic acid]
- inhibitory effect on urease activity ([3]; at 0.25 MIC): no significant inhibitory effect
- inhibitory effect on urease activity ([3]; at 0.5 MIC): no significant inhibitory effect
- inhibition rate of urease activity ([3]; at 2 MIC): 80.13%±1.18%
- inhibition rate of urease activity ([3]; at the MIC): 43.01%+2.11% and 43.01%±2.11%
- IFN-γ gene expression in gastric mucosa vs ZH modeling group [4]: significantly decreased; also recorded: significantly reduce
- IL-1β gene expression in gastric mucosa vs ZH modeling group [4]: significantly decreased; also recorded: significantly reduce
- IL-6 gene expression in gastric mucosa vs ZH modeling group [4]: significantly decreased; also recorded: significantly reduce
- IL-10 relative expression level in gastric mucosa vs ZH modeling group [4]: increased without a statistical difference
- effect on the diversity of the gastric flora ([5]; ZP group compared with ZA group): no significant effect
- decrease of relative abundance of Helicobacter pylori compared with ZH group ([5]; after 4 weeks of treatment): 9.46%
- gastric flora with significant increases at the genus level (LEfSe, LDA>3) ([5]; after 4 weeks of treatment): Prevotella, Lactobacillus, Faecalibaculum, Olsenella, Aerococcus
- Chao1 (alpha diversity) [5, 10]: 464.56
- Observed species (alpha diversity) [5, 10]: 453.6
- Shannon (alpha diversity) [5, 10]: 6.139
- Simpson (alpha diversity) [5, 10]: 0.9287
- Helicobacter in the stomach ([5]; genus level): significantly inhibit
- content / growth of Lactobacillus in the stomach ([5]; genus level): improved; also recorded: significantly promote the growth
- relative abundance of Lactobacillus in gastric microbiota ([5]; genus level): 22.39%
- proportion of Proteobacteria in gastric flora vs ZH group ([5]; phylum level): significantly decreased
- ratio of Bacteroides to Firmicutes in gastric flora ([5]; phylum level): increased
- minimum inhibitory concentration (MIC) [6]: 2500 µg/mL (≈ 15 mM)
- bacterial cell morphology, negative-stain transmission electron microscopy ([7]; 5-10 min): The flagella of the bacterial cells fell off
- bacterial cell internal structure, transmission electron microscopy ([7]; 4 h): the cell walls were separated from the cell membranes
- bacterial cell morphology, scanning electron microscopy ([7]; 4 h): most bacterial cells appeared to be disintegrated
- H&E histopathology of gastric mucosa [8]: the tissue structure was substantially normal; also recorded: inflammatory cells basically disappeared
- Inhibition zone diameter ([2]; 1.25 mg/mL solution): no inhibition zone
- Inhibition zone diameter ([2]; 2.5 mg/mL solution): 6.94 ± 0.95 mm
- Inhibition zone diameter ([2]; 5 mg/mL solution): 7.51 ± 0.74 mm
- Inhibition zone diameter ([2]; 10 mg/mL solution): 9.98±0.97 mm
- Inhibition zone diameter ([2]; 20 mg/mL solution): 12.41 ± 0.14 mm
- Inhibition zone diameter ([2]; 40 mg/mL solution): 15.35 ± 0.94 mm
- growth of H. pylori (growth curve, OD560) ([9]; MIC, 48 h, 72 h, 96 h and 120 h): completely inhibited; also recorded: significantly inhibited
- growth of H. pylori (growth curve, OD560) ([9]; ¼ MIC): a certain bactericidal effect
- growth of H. pylori (growth curve, OD560) ([9]; ½ MIC, 48 h, 72 h, 96 h and 120 h): significantly inhibited
- growth of H. pylori (growth curve, OD560) ([9]; ⅛ MIC): basically not inhibited
